Experiments:
Type in all cases: functional
Avena sterilis [1] = assay: Herbicidal activity against Avena sterilis accession P13S assessed as weed survival at 1/16 times field recommended herbicide dose
Avena sterilis [2] = assay: Herbicidal activity against Avena sterilis accession P06S assessed as weed survival at 1 times field recommended herbicide dose
Avena sterilis [3] = assay: Herbicidal activity against Avena sterilis accession P21S assessed as weed survival at 1/4 times field recommended herbicide dose
Avena sterilis [4] = assay: Herbicidal activity against Avena sterilis accession P18 assessed as weed survival at 32 times field recommended herbicide dose
Avena sterilis [5] = assay: Herbicidal activity against Avena sterilis accession P08 assessed as weed survival at 16 times field recommended herbicide dose
Avena sterilis [6] = assay: Herbicidal activity against Avena sterilis accession P21S assessed as weed survival at 1 times field recommended herbicide dose
Avena sterilis [7] = assay: Herbicidal activity against Avena sterilis accession P12 assessed as induction of weed mortality
Avena sterilis [8] = assay: Herbicidal activity against Avena sterilis accession P11 assessed as weed survival at 4 times field recommended herbicide dose
Avena sterilis [9] = assay: Herbicidal activity against Avena sterilis accession P17 assessed as induction of weed mortality
Avena sterilis [10] = assay: Herbicidal activity against Avena sterilis accession P21S assessed as weed survival at 1/16 times field recommended herbicide dose
Avena sterilis [11] = assay: Herbicidal activity against Avena sterilis accession P05 assessed as induction of weed mortality
Avena sterilis [12] = assay: Herbicidal activity against Avena sterilis accession P03 assessed as weed survival at 1 times field recommended herbicide dose
Avena sterilis [13] = assay: Herbicidal activity against Avena sterilis accession P18 assessed as weed survival at 8 times field recommended herbicide dose
Avena sterilis [14] = assay: Herbicidal activity against Avena sterilis accession P09 assessed as weed survival at 32 times field recommended herbicide dose
Avena sterilis [15] = assay: Herbicidal activity against Avena sterilis accession P02 assessed as weed survival at 16 times field recommended herbicide dose
Avena sterilis [16] = assay: Herbicidal activity against Avena sterilis accession P05 assessed as weed survival at 32 times field recommended herbicide dose
Avena sterilis [17] = assay: Herbicidal activity against Avena sterilis accession P04 assessed as weed survival at 4 times field recommended herbicide dose
Avena sterilis [18] = assay: Herbicidal activity against Avena sterilis accession P09 assessed as weed survival at 16 times field recommended herbicide dose
Avena sterilis [19] = assay: Herbicidal activity against Avena sterilis accession P18 assessed as induction of weed mortality
Avena sterilis [20] = assay: Herbicidal activity against Avena sterilis accession P17 assessed as weed survival at 32 times field recommended herbicide dose
Avena sterilis [21] = assay: Herbicidal activity against Avena sterilis accession P15 assessed as induction of weed mortality
Avena sterilis [22] = assay: Herbicidal activity against Avena sterilis accession P01 assessed as weed survival at 8 times field recommended herbicide dose
Avena sterilis [23] = assay: Herbicidal activity against Avena sterilis accession P11 assessed as weed survival at 8 times field recommended herbicide dose
Avena sterilis [24] = assay: Herbicidal activity against Avena sterilis accession P02 assessed as weed survival at 32 times field recommended herbicide dose
Avena sterilis [25] = assay: Herbicidal activity against Avena sterilis accession P02 assessed as weed survival at 4 times field recommended herbicide dose
Avena sterilis [26] = assay: Herbicidal activity against Avena sterilis accession P14 assessed as weed survival at 32 times field recommended herbicide dose
Avena sterilis [27] = assay: Herbicidal activity against Avena sterilis accession P17 assessed as weed survival at 1 times field recommended herbicide dose
Avena sterilis [28] = assay: Herbicidal activity against Avena sterilis accession P20 assessed as weed survival at 1 times field recommended herbicide dose
Avena sterilis [29] = assay: Herbicidal activity against Avena sterilis accession P09 assessed as weed survival at 8 times field recommended herbicide dose
Avena sterilis [30] = assay: Herbicidal activity against Avena sterilis accession P06S assessed as weed survival at 1/8 times field recommended herbicide dose
Avena sterilis [31] = assay: Herbicidal activity against Avena sterilis accession P11 assessed as weed survival at 32 times field recommended herbicide dose
Avena sterilis [32] = assay: Herbicidal activity against Avena sterilis accession P08 assessed as weed survival at 1 times field recommended herbicide dose
Avena sterilis [33] = assay: Herbicidal activity against Avena sterilis accession P03 assessed as weed survival at 32 times field recommended herbicide dose
Avena sterilis [34] = assay: Herbicidal activity against Avena sterilis accession P15 assessed as weed survival at 4 times field recommended herbicide dose
Avena sterilis [35] = assay: Herbicidal activity against Avena sterilis accession P12 assessed as weed survival at 1 times field recommended herbicide dose
Avena sterilis [36] = assay: Herbicidal activity against Avena sterilis accession P13S assessed as weed survival at 1 times field recommended herbicide dose
Avena sterilis [37] = assay: Herbicidal activity against Avena sterilis accession P15 assessed as weed survival at 1 times field recommended herbicide dose
Avena sterilis [38] = assay: Herbicidal activity against Avena sterilis accession P22 assessed as weed survival at 4 times field recommended herbicide dose
Avena sterilis [39] = assay: Herbicidal activity against Avena sterilis accession P04 assessed as induction of weed mortality
Avena sterilis [40] = assay: Herbicidal activity against Avena sterilis accession P20 assessed as weed survival at 32 times field recommended herbicide dose
Avena sterilis [41] = assay: Herbicidal activity against Avena sterilis accession P07 assessed as weed survival at 4 times field recommended herbicide dose
Avena sterilis [42] = assay: Herbicidal activity against Avena sterilis accession P10S assessed as weed survival at 1/8 times field recommended herbicide dose
Avena sterilis [43] = assay: Herbicidal activity against Avena sterilis accession P03 assessed as induction of weed mortality
Avena sterilis [44] = assay: Herbicidal activity against Avena sterilis accession P20 assessed as induction of weed mortality
Avena sterilis [45] = assay: Herbicidal activity against Avena sterilis accession P07 assessed as induction of weed mortality
Avena sterilis [46] = assay: Herbicidal activity against Avena sterilis accession P09 assessed as weed survival at 1 times field recommended herbicide dose
Avena sterilis [47] = assay: Herbicidal activity against Avena sterilis accession P07 assessed as weed survival at 16 times field recommended herbicide dose
Avena sterilis [48] = assay: Herbicidal activity against Avena sterilis accession P15 assessed as weed survival at 16 times field recommended herbicide dose
Avena sterilis [49] = assay: Herbicidal activity against Avena sterilis accession P02 assessed as weed survival at 8 times field recommended herbicide dose
Avena sterilis [50] = assay: Herbicidal activity against Avena sterilis accession P05 assessed as weed survival at 8 times field recommended herbicide dose
Avena sterilis [51] = assay: Herbicidal activity against Avena sterilis accession P11 assessed as induction of weed mortality
Avena sterilis [52] = assay: Herbicidal activity against Avena sterilis accession P18 assessed as weed survival at 16 times field recommended herbicide dose
Avena sterilis [53] = assay: Herbicidal activity against Avena sterilis accession P12 assessed as weed survival at 16 times field recommended herbicide dose
Avena sterilis [54] = assay: Herbicidal activity against Avena sterilis accession P17 assessed as weed survival at 4 times field recommended herbicide dose
Avena sterilis [55] = assay: Herbicidal activity against Avena sterilis accession P03 assessed as weed survival at 16 times field recommended herbicide dose
Avena sterilis [56] = assay: Herbicidal activity against Avena sterilis accession P21S assessed as weed survival at 1/8 times field recommended herbicide dose
Avena sterilis [57] = assay: Herbicidal activity against Avena sterilis accession P10S assessed as weed survival at 1 times field recommended herbicide dose
Avena sterilis [58] = assay: Herbicidal activity against Avena sterilis accession P13S assessed as induction of weed mortality

COC(=O)C(C)Oc1ccc(Oc2ccc(Cl)cc2Cl)cc1 (stereo unspecified) [DICLOFOP-METHYL] was tested, and the Survival (Avena sterilis [1]) was 90%, the Survival (Avena sterilis [2]) was 40% and the Survival (Avena sterilis [3]) was 83%. For the same compound, the Survival (Avena sterilis [4]) was 40%, the Survival (Avena sterilis [5]) was 53% and the Survival (Avena sterilis [6]) was 27%. The GR50 (Avena sterilis [7]) was >22740 gAi/ha, the Survival (Avena sterilis [8]) was 90% and the GR50 (Avena sterilis [9]) was 8389 gAi/ha. The Survival (Avena sterilis [10]) was 97%, the GR50 (Avena sterilis [11]) was 4859 gAi/ha and the Survival (Avena sterilis [12]) was 100%. The Survival (Avena sterilis [13]) was 60%, the Survival (Avena sterilis [14]) was 40% and the Survival (Avena sterilis [15]) was 70%. It also gave a Survival (Avena sterilis [16]) of 20%, a Survival (Avena sterilis [17]) of 97% and a Survival (Avena sterilis [18]) of 53%. The GR50 (Avena sterilis [19]) was 10199 gAi/ha, the Survival (Avena sterilis [20]) was 20% and the GR50 (Avena sterilis [21]) was >22740 gAi/ha. For the same compound, the Survival (Avena sterilis [22]) was 80%, the Survival (Avena sterilis [23]) was 73% and the Survival (Avena sterilis [24]) was 53%. The Survival (Avena sterilis [25]) was 97%, the Survival (Avena sterilis [26]) was 37% and the Survival (Avena sterilis [27]) was 93%. For the same compound, the Survival (Avena sterilis [28]) was 100%, the Survival (Avena sterilis [29]) was 73% and the Survival (Avena sterilis [30]) was 90%. For the same compound, the Survival (Avena sterilis [31]) was 63%, the Survival (Avena sterilis [32]) was 97% and the Survival (Avena sterilis [33]) was 40%. For the same compound, the Survival (Avena sterilis [34]) was 100%, the Survival (Avena sterilis [35]) was 80% and the Survival (Avena sterilis [36]) was 40%. It also gave a Survival (Avena sterilis [37]) of 100%, a Survival (Avena sterilis [38]) of 63% and a GR50 (Avena sterilis [39]) of 14196 gAi/ha. The Survival (Avena sterilis [40]) was 70%, the Survival (Avena sterilis [41]) was 60% and the Survival (Avena sterilis [42]) was 97%. For the same compound, the GR50 (Avena sterilis [43]) was 13359 gAi/ha, the GR50 (Avena sterilis [44]) was >22740 gAi/ha and the GR50 (Avena sterilis [45]) was 3737 gAi/ha. The Survival (Avena sterilis [46]) was 100%, the Survival (Avena sterilis [47]) was 20% and the Survival (Avena sterilis [48]) was 83%. For the same compound, the Survival (Avena sterilis [49]) was 80%, the Survival (Avena sterilis [50]) was 40% and the GR50 (Avena sterilis [51]) was >22740 gAi/ha. The Survival (Avena sterilis [52]) was 40%, the Survival (Avena sterilis [53]) was 63% and the Survival (Avena sterilis [54]) was 80%. The Survival (Avena sterilis [55]) was 53%, the Survival (Avena sterilis [56]) was 97% and the Survival (Avena sterilis [57]) was 33%. It also gave a GR50 (Avena sterilis [58]) of 509 gAi/ha.

Work on CCOC(=O)[C@@H](C)Oc1ccc(Oc2nc3ccc(Cl)cc3o2)cc1 [FENOXAPROP-P-ETHYL] yielded a Survival (Avena sterilis [1]) of 80%, a Survival (Avena sterilis [2]) of 0% and a Survival (Avena sterilis [3]) of 43%. For the same compound, the Survival (Avena sterilis [4]) was 60%, the Survival (Avena sterilis [5]) was 30% and the Survival (Avena sterilis [6]) was 0%. For the same compound, the GR50 (Avena sterilis [7]) was 1290 gAi/ha, the Survival (Avena sterilis [8]) was 83% and the GR50 (Avena sterilis [9]) was 303 gAi/ha. It also gave a Survival (Avena sterilis [10]) of 83%, a GR50 (Avena sterilis [11]) of 181 gAi/ha and a Survival (Avena sterilis [12]) of 97%. It also gave a Survival (Avena sterilis [13]) of 90%, a Survival (Avena sterilis [14]) of 40% and a Survival (Avena sterilis [15]) of 67%. For the same compound, the Survival (Avena sterilis [16]) was 0%, the Survival (Avena sterilis [17]) was 80% and the Survival (Avena sterilis [18]) was 60%. For the same compound, the GR50 (Avena sterilis [19]) was >2640 gAi/ha, the Survival (Avena sterilis [20]) was 0% and the GR50 (Avena sterilis [21]) was 1440 gAi/ha. It also gave a Survival (Avena sterilis [22]) of 40%, a Survival (Avena sterilis [23]) of 77% and a Survival (Avena sterilis [24]) of 40%. The Survival (Avena sterilis [25]) was 100%, the Survival (Avena sterilis [26]) was 0% and the Survival (Avena sterilis [27]) was 97%. The Survival (Avena sterilis [28]) was 97%, the Survival (Avena sterilis [29]) was 80% and the Survival (Avena sterilis [30]) was 80%. For the same compound, the Survival (Avena sterilis [31]) was 50%, the Survival (Avena sterilis [32]) was 100% and the Survival (Avena sterilis [33]) was 37%. For the same compound, the Survival (Avena sterilis [34]) was 100%, the Survival (Avena sterilis [35]) was 100% and the Survival (Avena sterilis [36]) was 0%. For the same compound, the Survival (Avena sterilis [37]) was 100%, the Survival (Avena sterilis [38]) was 40% and the GR50 (Avena sterilis [39]) was 913 gAi/ha. For the same compound, the Survival (Avena sterilis [40]) was 53%, the Survival (Avena sterilis [41]) was 77% and the Survival (Avena sterilis [42]) was 80%. The GR50 (Avena sterilis [43]) was 860 gAi/ha, the GR50 (Avena sterilis [44]) was >2640 gAi/ha and the GR50 (Avena sterilis [45]) was >2640 gAi/ha. For the same compound, the Survival (Avena sterilis [46]) was 80%, the Survival (Avena sterilis [47]) was 80% and the Survival (Avena sterilis [48]) was 60%. The Survival (Avena sterilis [49]) was 93%, the Survival (Avena sterilis [50]) was 20% and the GR50 (Avena sterilis [51]) was 2261 gAi/ha. The Survival (Avena sterilis [52]) was 73%, the Survival (Avena sterilis [53]) was 50% and the Survival (Avena sterilis [54]) was 40%. For the same compound, the Survival (Avena sterilis [55]) was 40%, the Survival (Avena sterilis [56]) was 80% and the Survival (Avena sterilis [57]) was 0%. It also gave a GR50 (Avena sterilis [58]) of 18 gAi/ha.
